Experimental data from patent US4486419A, “5,2',3',4',4",6"-Hexadeoxykanamycin and its 1-N-acylated derivative” (Zaidan Hojin Biseibutsu Kagaku Kenkyu Kai, priority 1982, dated 1984).
In brackets after ≈: the same amount, converted by molar mass.

Legend:
[1] = system: Pseudomonas aeruginosa H11; type: cell-based; details: nutrient agar, 37° C., 18 hours
[2] = system: Pseudomonas aeruginosa GN315; type: cell-based; details: nutrient agar, 37° C., 18 hours
Proteus rettgeri GN311 = type: cell-based; details: Providencia rettgeri, nutrient agar, 37° C., 18 hours
[3] = system: Klebsiella pneumoniae 22 #3038; type: cell-based; details: nutrient agar, 37° C., 18 hours
Serratia 4 = type: cell-based; details: nutrient agar, 37° C., 18 hours
[4] = system: Staphylococcus aureus Ap01; type: cell-based; details: nutrient agar, 37° C., 18 hours
[5] = system: Escherichia coli K-12 C 600R135; assay: microbe, parasite or virus in culture; type: cell-based; details: K12C600R135, 18 h
[6] = system: Escherichia coli K-12 ML 1630; type: cell-based; details: K12ML1630, nutrient agar, 37° C., 18 hours
Salmonella typhi T-63 = type: cell-based; details: Salmonella enterica, 18 h
Serratia SOU = type: cell-based; details: nutrient agar, 37° C., 18 hours
[7] = system: Corynebacterium bovis 1810; assay: microbe, parasite or virus in culture; details: Corynebacterium bovis, 1810, 18 h
Description: (§1) Thus, the minimum inhibitory concentrations (mcg/ml) of the hexadeoxykanamycin and of the hexadeoxyamikacin according to this invention against various microorganisms were determined according to serial dilution method on a nutrient agar medium at 37° C., the estimation being made after 18 hours incubation. For comparison purpose, the minimum inhibitory concentrations of amikacin were also determined in the same manner as stated above.

Serratia marcescens = assay: microbe, parasite or virus in culture; details: 18 h
Description: as §1

[8] = system: Shigella flexneri 4b JS11811; type: cell-based; details: 4BJS11811, nutrient agar, 37° C., 18 hours
[9] = system: Staphylococcus aureus Smith; type: cell-based; details: nutrient agar, 37° C., 18 hours
[10] = system: Bacillus subtilis NRRL B-558; type: cell-based; details: NRRLB558, nutrient agar, 37° C., 18 hours
Escherichia coli W677 = type: cell-based; details: nutrient agar, 37° C., 18 hours
[11] = system: Escherichia coli K-12 ML 1410 R81; assay: microbe, parasite or virus in culture; type: cell-based; details: 18 h
[12] = system: Shigella dysenteriae JS 11910; type: cell-based; details: JS11910, 18 h
[13] = system: Escherichia coli K-12 R 388; type: cell-based; details: K12R388, 18 h
[14] = system: Pseudomonas aeruginosa 99; type: cell-based; details: Pseudomonas aeruginosa, 99, 18 h
[15] = system: Mycobacterium smegmatis ATCC 607; type: cell-based; details: Mycolicibacterium smegmatis, ATCC607; nutrient agar, 37° C., 18 hours
Shigella sonnei JS11746 = type: cell-based; details: nutrient agar, 37° C., 18 hours
[16] = system: Staphylococcus epidermidis 109; type: cell-based; details: nutrient agar, 37° C., 18 hours
[17] = system: Pseudomonas aeruginosa H9; type: cell-based; details: H9, 18 h
[18] = system: Pseudomonas aeruginosa K-Ps102; type: cell-based; details: KPS102, 18 h
[19] = system: Pseudomonas aeruginosa B-13; type: cell-based; details: B13, 18 h
[20] = system: Salmonella enteritidis 1891; type: cell-based; details: Salmonella enterica, nutrient agar, 37° C., 18 hours
Proteus rettgeri GN466 = type: cell-based; details: Providencia rettgeri, nutrient agar, 37° C., 18 hours
[21] = system: Micrococcus luteus PCI 1001; type: cell-based; details: PCI1001, nutrient agar, 37° C., 18 hours
Escherichia coli NIHJ = type: cell-based; details: nutrient agar, 37° C., 18 hours
[22] = system: Escherichia coli K-12 LA 290 R55; assay: microbe, parasite or virus in culture; type: cell-based; details: K12LA290R55, 18 h
[23] = system: Escherichia coli K-12 J5R 11-2; type: cell-based; details: K12J5R112, nutrient agar, 37° C., 18 hours
[24] = system: Staphylococcus aureus FDA 209P; type: cell-based; details: FDA209P, nutrient agar, 37° C., 18 hours
[25] = system: Escherichia coli K-12 LA 290 R56; assay: microbe, parasite or virus in culture; type: cell-based; details: K12LA290R56, 18 h
[26] = system: Escherichia coli K-12 LA 290 R64; assay: microbe, parasite or virus in culture; type: cell-based; details: K12LA290R64, 18 h
Bacillus anthracis = assay: microbe, parasite or virus in culture; type: cell-based; details: 18 h
[27] = system: Escherichia coli JR66/W677; type: cell-based; details: JR66/W677, 18 h
[28] = system: Pseudomonas aeruginosa A3; type: cell-based; details: A3, 18 h
Providencia 2991 = type: cell-based; details: nutrient agar, 37° C., 18 hours
[29] = system: Pseudomonas aeruginosa No. 12; type: cell-based; details: nutrient agar, 37° C., 18 hours
[30] = system: Pseudomonas aeruginosa 21-75; type: cell-based; details: 2175, nutrient agar, 37° C., 18 hours
[31] = system: Escherichia coli K-12 ML 1410; type: cell-based; details: K12ML1410, nutrient agar, 37° C., 18 hours

With C[C@@H]1C[C@H](N)[C@@H](O)[C@@H](O[C@@H]2C[C@H](O[C@@H]3CCC[C@@H](CN)O3)[C@@H](N)C[C@H]2N)O1 [Hexadeoxykanamycin, 5,2',3',4',4",6"-hexadeoxykanamycin] the MIC [1] was over 100 µg/mL, the MIC [2] was over 100 µg/mL and the MIC (Proteus rettgeri GN311) was 0.78 µg/mL (≈ 2.01 µM). The MIC [3] was over 100 µg/mL, the MIC (Serratia 4) was 25 µg/mL (≈ 64.3 µM) and the MIC [4] was 3.13 µg/mL (≈ 8.06 µM). It also gave an MIC [5] of 1.56 µg/mL (≈ 4.02 µM), an MIC [6] of 25 µg/mL (≈ 64.3 µM) and an MIC (Salmonella typhi T-63) of 0.78 µg/mL (≈ 2.01 µM). For the same compound, the MIC (Serratia SOU) was over 100 µg/mL, the MIC [7] was 6.25 µg/mL (≈ 16.1 µM) and the MIC (Serratia marcescens) was 6.25 µg/mL (≈ 16.1 µM). The MIC [8] was 6.25 µg/mL (≈ 16.1 µM), the MIC [9] was 0.78 µg/mL (≈ 2.01 µM) and the MIC [10] was 0.78 µg/mL (≈ 2.01 µM). It also gave an MIC (Escherichia coli W677) of 1.56 µg/mL (≈ 4.02 µM), an MIC [11] of 25 µg/mL (≈ 64.3 µM) and an MIC [12] of 6.25 µg/mL (≈ 16.1 µM). The MIC [13] was 1.56 µg/mL (≈ 4.02 µM), the MIC [14] was over 100 µg/mL and the MIC [15] was 0.78 µg/mL (≈ 2.01 µM). The MIC (Shigella sonnei JS11746) was 3.13 µg/mL (≈ 8.06 µM), the MIC [16] was 3.13 µg/mL (≈ 8.06 µM) and the MIC [17] was 100 µg/mL (≈ 257 µM). It also gave an MIC [18] of over 100 µg/mL, an MIC [19] of over 100 µg/mL and an MIC [20] of 1.56 µg/mL (≈ 4.02 µM). For the same compound, the MIC (Proteus rettgeri GN466) was 1.56 µg/mL (≈ 4.02 µM), the MIC [21] was 12.5 µg/mL (≈ 32.2 µM) and the MIC (Escherichia coli NIHJ) was 3.13 µg/mL (≈ 8.06 µM). For the same compound, the MIC [22] was 100 µg/mL (≈ 257 µM), the MIC [23] was 25 µg/mL (≈ 64.3 µM) and the MIC [24] was 1.56 µg/mL (≈ 4.02 µM). For the same compound, the MIC [25] was 12.5 µg/mL (≈ 32.2 µM), the MIC [26] was 25 µg/mL (≈ 64.3 µM) and the MIC (Bacillus anthracis) was 1.56 µg/mL (≈ 4.02 µM). It also gave an MIC [27] of over 100 µg/mL, an MIC [28] of 3.13 µg/mL (≈ 8.06 µM) and an MIC (Providencia 2991) of 50 µg/mL (≈ 129 µM). The MIC [29] was 50 µg/mL (≈ 129 µM), the MIC [30] was over 100 µg/mL and the MIC [31] was 3.13 µg/mL (≈ 8.06 µM).
